Test system: soybean seeds (Variety: Halosoy)
Test: Test of Yield Increasing Effect on Soybeans (seed drenching)
Type: in vivo
Details: seeds drenched 12 hours; for Productive grain increasing index: average number of productive grains per plant in non-treated section = 100%; for Yield increasing index per plant: harvest 110 days after sowing, yield (g) in non-treated section = 100%; for One grain weight: weight per selected bean after threshing and drying, non-treated 0.22 g

In the case of `CCC1(C(=O)NC(C)c2ccc(Cl)cc2)C(C)C1(Cl)Cl` [Carpropamid, N-(R)-[1-(4-chloro-phenyl)-ethyl]-2,2-dichloro-1-ethyl-3t-methyl-1r-cyclopropanecarboxamide], the “Productive grain increasing index” value (1 ppm) is reported as 127.1%, the “Yield increasing index per plant” value (1 ppm) is reported as 131.1% and the One grain weight (1 ppm) is reported as 0.23 g. For the same compound, the “Productive grain increasing index” value (10 ppm) was 163.5%, the “Yield increasing index per plant” value (10 ppm) was 173.1% and the One grain weight (10 ppm) was 0.23 g. The “Productive grain increasing index” value (100 ppm) was 163.4%, the “Yield increasing index per plant” value (100 ppm) was 169.1% and the One grain weight (100 ppm) was 0.23 g. For the same compound, the “Productive grain increasing index” value (1000 ppm) was 126.8%, the “Yield increasing index per plant” value (1000 ppm) was 132.2% and the One grain weight (1000 ppm) was 0.23 g.

Reference: US20030040438A1, “Method for increasing the yield of beans” (priority 2000, published 2003)
